Converted amounts (≈) assume the structure as drawn. Read-outs that look alike come from different tables or passages of the source. Marks after values point to notes of the source that are not given here. Where a SMILES comes first, the peptide text is derived from it. Bridges are numbered along the chain shown (N, C = ends). [ ]: non-standard residue; d: D form. The star is where a group is joined. ξ: configuration not given here. dAoc(2) = CCCCCC[C@@H](N)C(=O)O; ξLac(3-iPr) = CC(C)CC(O)C(=O)O; Heptanoyl = CCCCCCC(=O)*; Nle = CCCC[C@H](N)C(=O)O; Octanoyl = CCCCCCCC(=O)*; Dab = NCC[C@H](N)C(=O)O; Hexanoyl = CCCCCC(=O)*
Key:
[1] = test system: Pseudomonas aeruginosa ATCC 9027; format: cell-based
From the text: (§1) Bacterial strains used for the antibacterial activity tests were obtained from the American Type Culture Collection (ATCC, Rockville, MD, USA): • Non resistant Gram-negative bacterias: • Escherichia coli ATCC 8739 • Pseudomonas aeruginosa ATCC 9027 • Non resistant Gram-positive bacteria: • Staphylococcus aureus ATTC6538

[2] = test system: Staphylococcus aureus ATTC6538; format: cell-based
From the text: as §1

[3] = test system: Escherichia coli ATCC 8739; format: cell-based
From the text: as §1

[4] = test system: Pseudomonas aeruginosa 12S; format: cell-based; details: P. aeruginosa 12S
Protocol: (§7) For resistant and multi-drug resistant bacteria Gram negative bacteria, the test was essentially the same with slight changes in the amounts used: samples of a final volume of 100µL were prepared as follows: aliquots (50 µL) of a suspension containing bacteria at a concentration of 1.5x10^6 colony-forming units/mL in culture medium (MH, Muller Hinton Broth, Difco, USA), adjusted at pH 7.4, were added to 100µL of solution containing the peptide prepared from a stock solution of 1024 mg/L peptide in water in serial 2-fold dilutions in MH broth adjusted to pH 7.4
(§8) Samples of resistant and multi-drug resistant bacteria were from clinical origin and not standardized: • Resistant Gram-negative bacterias used: • Escherichia coli VAL 5 • Escherichia coli VAL 10 • Escherichia coli MAC21a • Escherichia coli NDM-1 • Pseudomonas aeruginosa 36a • Pseudomonas aeruginosa 38a • Pseudomonas aeruginosa 21 R • Pseudomonas aeruginosa 21 S • Pseudomonas aeruginosa 12R • Pseudomonas aeruginosa 12S • Colistin-resistant A. baumannii CR49 • Colistin-resistant A. baumannii Ab99 […]

[5] = test system: Pseudomonas aeruginosa 21 S; details: P. aeruginosa 21S
Protocol: (§2) The antibacterial activity of the lipopeptides was measured in sterile 96-well plates (Corning Costar 3598 microtiter plates). Samples of a final volume of 200µL were prepared as follows: aliquots (100 µL) of a suspension containing bacteria at a concentration of 10^5 colony-forming units/mL in culture medium (MH, Muller Hinton Broth, Difco, USA), adjusted at pH 7.4, were added to 100µL of solution containing the peptide prepared from a stock solution of 1 mg/mL peptide in water in serial 2-fold dilutions in MH broth adjusted to pH 7.4 (Jorgensen and Turnide, 2003). Inhibition of bacterial growth was determined by measuring the absorbance at 492 nm with a Absorbance Microplate reader ELx 800 (Bio-tek Instruments) after an incubation of 18-20 h at 37°C. Antibacterial activities are expressed as the MIC, the concentration at which no growth is observed after 18-20 h of incubation. Microorganisms were cultured on Tryptycase Soy Broth (Pronadisa, Barcelona) and incubated at 37°C until growth. Then a loopfull was streaked on Trypticase Soy Agar (Pronadisa, Barcelona) and incubated at 37°C until colony formation occurs. Microorganisms were preserved on cryobilles (EAS laboratoire, France) at -20°C.
(§3) For resistant and multi-drug resistant bacteria Gram negative bacteria, the test was essentially the same with slight changes in the amounts used: samples of a final volume of 100µL were prepared as follows: aliquots (50 µL) of a suspension containing bacteria at a concentration of 1.5x10^6 colony-forming units/mL in culture medium (MH, Muller Hinton Broth, Difco, USA), adjusted at pH 7.4, were added to […] of solution containing the peptide prepared from a stock solution of 1024 mg/L peptide in water in serial 2-fold dilutions in MH broth adjusted to pH 7.4
(§4) Samples of resistant and multi-drug resistant bacteria were from clinical origin and not standardized: • Resistant Gram-negative bacterias used: • Escherichia coli VAL 5 • Escherichia coli VAL 10 • Escherichia coli MAC21a • Escherichia coli NDM-1 • Pseudomonas aeruginosa 36a • Pseudomonas aeruginosa 38a • Pseudomonas aeruginosa 21 R • Pseudomonas aeruginosa 21 S • Pseudomonas aeruginosa 12R • Pseudomonas aeruginosa 12S • Colistin-resistant A. baumannii CR49 • Colistin-resistant A. baumannii Ab99
(§5) P. aeruginosa strains are highly-resistant: For instance, 38a and 36a are resistant to Ceftazidime, Ciprofloxacin, Imipenem, Piperacillin-tazobactam; 21S is resistant to Ceftazidime, Ciprofloxacin, Imipenem, Piperacillin-tazobactam and tobramycin; 21 R is resistant to Ciprofloxacin, tobramycin and colistin; 12S is resistant to cefotoxin, piperacillin/tazobactam, aztreonam, gentamicin and amikacin; and 12R is resistant to ceftazidime, cefotoxin,cefepime, piperacillin/tazobactam, aztreonam,imipenem, gentamicin, amikacin and colistin.

[6] = test system: Pseudomonas aeruginosa 21 R; details: P. aeruginosa 21R
Protocol: as §2, §3, §4, §5

[7] = test system: Pseudomonas aeruginosa 12R; format: cell-based; details: P. aeruginosa 12R
Protocol: as §7, §8

[8] = test system: Pseudomonas aeruginosa 38a; format: cell-based
Protocol: as §7

[9] = test system: Pseudomonas aeruginosa 36a; format: cell-based
Protocol: as §7

[10] = test system: Escherichia coli VAL 10; format: cell-based
From the text: (§6) E. coli strains: NDM-1 (multidrug resistant strain) and VAL10, VAL5 and MAC21 strains show intermediante resistance to quinolones

[11] = test system: Escherichia coli NDM-1; format: cell-based
From the text: as §6

[12] = test system: Escherichia coli MAC21a; format: cell-based
From the text: as §6

[13] = test system: Escherichia coli VAL 5; format: cell-based
From the text: as §6

[14] = test system: Colistin-resistant A. baumannii Ab99; format: cell-based
Protocol: as §7

[15] = test system: Colistin-resistant A. baumannii CR49; format: cell-based
Protocol: as §7

SMILES | MIC ([1]; ATCC 9027) [µg/mL] | MIC [2] [µg/mL] | MIC [3] [µg/mL] | MIC [4] [µg/mL] | MIC [5] [µg/mL] | MIC [6] [µg/mL] | MIC [7] [µg/mL] | MIC ([8]; 38a) [µg/mL] | MIC ([9]; 36a) [µg/mL] | MIC [10] [µg/mL] | MIC [11] [µg/mL] | MIC [12] [µg/mL] | MIC [13] [µg/mL] | MIC [14] [µg/mL] | MIC [15] [µg/mL] | MIC ([8]; P. aeruginosa 38a) [µg/mL] | MIC ([9]; P. aeruginosa 36a) [µg/mL] | MIC ([1]; P. aeruginosa ATTC9027 (non-resistant))
CCCCCCC(=O)N[C@@H](CCN)C(=O)N[C@H](C(=O)N[C@@H](CCN)C(=O)N[C@H]1CSSC[C@H](C(N)=O)NC(=O)[C@H](CCN)NC(=O)[C@H](CCN)NC(=O)[C@H](CCCC)NC(=O)[C@@H](CCCCCC)NC(=O)[C@H](CCN)NC1=O)[C@@H](C)O [Example 1, heptanoyl-Dab-Thr-Dab-cyclo(S-S)[Cys-Dab-DAoc-Nle-Dab-Dab-DCys]] (Heptanoyl-[Dab]T[Dab]C[Dab][dAoc(2)][Nle][Dab][Dab][dC]-NH2; disulfide 4-10) | 0.5 (≈ 0.42 µM) | 16 (≈ 13.5 µM) | 0.5 to 1 | 0.5 (≈ 0.42 µM) | 0.03 (≈ 0.0252 µM) | 0.25 (≈ 0.21 µM) | 1 (≈ 0.841 µM) | 0.03 (≈ 0.0252 µM) | 0.06 (≈ 0.0504 µM) | 1 (≈ 0.841 µM) | ≤ 0.5 | <0.5 | 1 (≈ 0.841 µM) |  |  |  |  | 
CCCCCCC(=O)N[C@@H](CCN)C(=O)N[C@H](C(=O)N[C@@H](CCN)C(=O)N[C@H]1CSSC[C@H](C(N)=O)NC(=O)[C@H](CCN)NC(=O)[C@H](CCN)NC(=O)C(CC(C)C)OC(=O)[C@@H](CCCCCC)NC(=O)[C@H](CCN)NC1=O)[C@@H](C)O (stereo partly drawn) [Example 2, heptanoyl-Dab-Thr-Dab-cyclo(S-S)[Cys-Dab-DAoc-OLe-Dab-Dab-DCyc]] (Heptanoyl-[Dab]T[Dab]C[Dab][dAoc(2)][ξLac(3-iPr)][Dab][Dab][dC]-NH2; disulfide 4-10) | 1 to 2 | 64 (≈ 53.8 µM) | 4 (≈ 3.36 µM) | 0.25 (≈ 0.21 µM) | 0.25 (≈ 0.21 µM) | 2 (≈ 1.68 µM) | 0.25 (≈ 0.21 µM) | 0.125 (≈ 0.105 µM) | 1 (≈ 0.84 µM) | 32 (≈ 26.9 µM) | 1 (≈ 0.84 µM) | 8 (≈ 6.72 µM) | 1 (≈ 0.84 µM) | 16 (≈ 13.4 µM) | 16 (≈ 13.4 µM) |  |  | 
CCCCCC[C@@H](N)C(=O)N[C@H](C(=O)N[C@@H](CCN)C(=O)N[C@H]1CSSC[C@H](C(N)=O)NC(=O)[C@H](CCN)NC(=O)[C@H](CCN)NC(=O)C(CC(C)C)OC(=O)[C@@H](CCCCCC)NC(=O)[C@H](CCN)NC1=O)[C@@H](C)O (stereo partly drawn) [Example 3, DAoc-Thr-Dab-cyclo(S-S)[Cys-Dab-DAoc-OLe-Dab-Dab-DCys]] (H-[dAoc(2)]T[Dab]C[Dab][dAoc(2)][ξLac(3-iPr)][Dab][Dab][dC]-NH2; disulfide 4-10) | 0.25 (≈ 0.223 µM) |  | 2 (≈ 1.79 µM) | 0.5 (≈ 0.447 µM) | 0.25 (≈ 0.223 µM) | 0.125 (≈ 0.112 µM) | 0.25 (≈ 0.223 µM) | 4 (≈ 3.57 µM) | 0.5 (≈ 0.447 µM) | 16 (≈ 14.3 µM) | 2 (≈ 1.79 µM) | 8 (≈ 7.15 µM) | 2 (≈ 1.79 µM) | 8 (≈ 7.15 µM) | 8 (≈ 7.15 µM) |  |  | 
CCCCCCCC(=O)N[C@@H](CCN)C(=O)N[C@H](C(=O)N[C@@H](CCN)C(=O)N[C@H]1CSSC[C@H](C(N)=O)NC(=O)[C@H](CCN)NC(=O)[C@H](CCN)NC(=O)C(CC(C)C)OC(=O)[C@@H](CCCCCC)NC(=O)[C@H](CCN)NC1=O)[C@@H](C)O (stereo partly drawn) [Example 4, octanoyl-Dab-Thr-Dab-cyclo(S-S)[Cys-Dab-DAoc-OLe-Dab-Dab-DCys]] (Octanoyl-[Dab]T[Dab]C[Dab][dAoc(2)][ξLac(3-iPr)][Dab][Dab][dC]-NH2; disulfide 4-10) | 0.25 (≈ 0.208 µM) |  | 1 (≈ 0.83 µM) | 0.125 (≈ 0.104 µM) | 0.25 (≈ 0.208 µM) | 2 (≈ 1.66 µM) | 0.25 (≈ 0.208 µM) |  |  | 8 (≈ 6.64 µM) | 1 (≈ 0.83 µM) | 8 (≈ 6.64 µM) | 1 (≈ 0.83 µM) | 8 (≈ 6.64 µM) | 16 (≈ 13.3 µM) | 0.125 (≈ 0.104 µM) | 0.125 (≈ 0.104 µM) | 
CCCCCC[C@H]1NC(=O)[C@H](CCN)NC(=O)[C@@H](NC(=O)[C@H](CCN)NC(=O)[C@@H](NC(=O)[C@H](CCN)NC(=O)CCCCC)[C@@H](C)O)CSSC[C@H](C(N)=O)NC(=O)[C@H](CCN)NC(=O)[C@H](CCN)NC(=O)C(CC(C)C)OC1=O (stereo partly drawn) [Example 5, hexanoyl-Dab-Thr-Dab-cyclo(S-S)[Cys-Dab-DAoc-OLe-Dab-Dab-DCys]] (Hexanoyl-[Dab]T[Dab]C[Dab][dAoc(2)][ξLac(3-iPr)][Dab][Dab][dC]-NH2; disulfide 4-10) | <0.25 | 32 (≈ 27.2 µM) | 2 to 4 |  |  |  |  |  |  |  |  |  |  |  |  |  |  | 
CCCCCCC(=O)N[C@@H](Cc1c[nH]cn1)C(=O)N[C@H](C(=O)N[C@@H](CCN)C(=O)N[C@H]1CSSC[C@H](C(N)=O)NC(=O)[C@H](Cc2c[nH]cn2)NC(=O)[C@H](CCN)NC(=O)[C@H](CCCC)NC(=O)[C@@H](CCCCCC)NC(=O)[C@H](CCN)NC1=O)[C@@H](C)O [Example 6] (Heptanoyl-HT[Dab]C[Dab][dAoc(2)][Nle][Dab]H[dC]-NH2; disulfide 4-10) | 1 (≈ 0.791 µM) | 16 (≈ 12.7 µM) | 4 (≈ 3.17 µM) |  |  |  |  | 32 (≈ 25.3 µM) | 1 (≈ 0.791 µM) | 16 (≈ 12.7 µM) | 8 (≈ 6.33 µM) | 8 (≈ 6.33 µM) | 8 (≈ 6.33 µM) | 32 (≈ 25.3 µM) | 4 (≈ 3.17 µM) |  |  | 
CCCCCC[C@H]1NC(=O)[C@H](CCN)NC(=O)[C@@H](NC(=O)[C@H](CCN)NC(=O)[C@@H](NC(=O)[C@H](CCN)NC(=O)CCCCC)[C@@H](C)O)CSSC[C@H](C(N)=O)NC(=O)[C@H](CCN)NC(=O)[C@H](CCN)NC(=O)[C@H](CCCC)NC1=O [Example 7, hexanoyl-Dab-Thr-Dab-cyclo(S-S)[Cys-Dab-DAoc-Nle-Dab-Dab-DCys]] (Hexanoyl-[Dab]T[Dab]C[Dab][dAoc(2)][Nle][Dab][Dab][dC]-NH2; disulfide 4-10) |  | >32 | 8 (≈ 6.81 µM) |  |  |  |  |  |  |  |  |  |  |  |  |  |  | 1-2* µg/ml

Source: patent EP3173421A1, “PEPTIDIC COMPOUNDS USEFUL AS ANTIBACTERIAL AGENTS” (Universitat de Barcelona, priority 2015, dated 2017)
